Results published in US20170304369A1, “METHODS OF DIFFERENTIATING STEM CELLS INTO LIVER CELL LINEAGES” (Agency for Science, Technology and Research, priority 2014, published 2017).
Entries after “also recorded” stand apart in the source; their conditions may differ. Where two headings read alike, the source gives them in different places.

Legend:
hPSC-derived LB cells = assay: Hepatic progenitor specification from hPSC-derived LB cells (days 7-12), liver gene expression; details: for subsequent expression of liver genes: brief treatment of LB cells for 2 days
Description: (§1) mTeSR1-grown hPSCs were cultured and differentiated as follows: • a) hPSCs cells were seeded at 1:12 as small clumps using Accutase (Millipore, Cat#SCR005) and Geltrex (Lifetech, Cat#A1413302). • b) Anterior Primitive Streak (day 1) was specified using Activin A (100 ng/ml), CHIR99021 (3 μM), PI-103 (50 nM) and Fgf2 (10 ng/ml) in serumless CDM2 basal medium for 24 hr. • c) Activin A (100 ng/ml) and DM3189 (250 nM) and PI-103 (50 nM) were added in the same basal medium for 24 hr to induce Definitive Endoderm (DE) (day 2). • d) DE was then patterned into PFG by using A83-01 (1 μM), RA (2 μM), BMP4 (30 ng/ml) and Fgf2 (10 ng/ml) in CDM KOSR basal media for another 24 hrs. • e) PFG was further differentiated to LB progenitors using Activin A (100 ng/ml), 8-bromo-CAMP (1 mM) and BMP4 (10 ng/ml) in CDM KOSR basal media for 3 days (day 4 to 6). • f) LB progenitors were treated with BMP4 (10 ng/ml), Oncostatin M (10 ng/ml), Dexamethasone ([…]), DAPT, C59 (1 μM) or RO4919097 (2 μM), forskolin ([…]), human recombinant insulin (10 μg/ml), ascorbic acid-2 phosphate (200 μg/ml), L-gluthathione ([…]) and amino acid concentrate and in IMDM/F12 media for the next 6 days (day 7 to 12) to induce hepatic progenitors. • g) Hepatic progenitors were treated with Dexamethasone (10 μM), RO4929097 (2 μM) or DAPT (10 μM), Forskolin (10 μM), human recombinant insulin (10 μg/ml), ascorbic acid-2 phosphate (200 μg/ml) in IMDM/F12 media for 6 days (day 13 to 18) to generate hepatocyte-like cells. Intra-Splenic Transplantation into FRG^−/− Mice
(§2) RNA was extracted using Zymo RNA extraction kit. RT-quantitative PCR was used to quantify gene expression. Primer sequences were designed by NCBI Primer Tool and primer specificity and linearity was tested before usage for gene expression analyses.
To identify the signals that regulate the progression of the LB progenitors from an ALB- to a more differentiated ALB+ state, multiple signaling pathways were systematically screened for their effects on ALB expression (including FGF, WNT, Notch, HGF, cAMP/PKA, TGFβ, and BMP).

adult human hepatocytes = assay: Adult human primary hepatocytes in vitro culture, liver gene expression after 2 days; type: cell-based
Description: RNA was extracted using Zymo RNA extraction kit. RT-quantitative PCR was used to quantify gene expression. […]
The signals that promote hepatocyte specification and/or maturation were considered to also ameliorate such loss of liver maturity and gene expression during in vitro culture. Thus, the signaling pathways that appear to be dysregulated were investigated including Notch, TGFb, Wnt, as well as other major signaling pathways including estrogen, BMP, FGF, PKA/cAMP pathways, in order to determine the effects on liver genes after 2 days.

PFG cells = assay: Liver bud (LB) specification from posterior foregut, days 4-6, gene expression; type: cell-based, human; details: for LB gene expression / expansion: addition at the LB specification stage; for subsequent expression of ALB: treatment during LB specification, then hepatic specification medium
Description: as §1, §2
The signaling pathways, including Retinoic, Nodal/Activin, Bmp, PKA, FGF and Wnt signaling, were explored to determine if they could directly regulate LB specification.

hPSC-derived DE = assay: Foregut specification: treatment of hPSC-derived DE (day 3), downstream gene expression by RT-qPCR; type: cell-based, human
Description: RT-quantitative PCR was used to quantify gene expression. […] During liver development, populations of definitive endoderm cells are first patterned along the anterior-posterior axis to form either the foregut or mid/hindgut. In the present invention the effects of signaling inhibition on the developmental competence of the foregut cells to give rise to the liver bud (LB) cells was examined. Competence is defined as the capacity of one stem cell or progenitor cell to differentiate into its daughter cell type. For example, the posterior foregut is competent when it could give rise to its daughter cell types such as the pancreatic endoderm and LB cells.

[1] = subtraction from BCDEFV cocktail, day 10
[2] = on removal of the component from a cocktail of signaling factors
[3] = 24 h during foregut specification

Cc1cnc(-c2cnc(NCCNc3ccc(C#N)cn3)nc2-c2ccc(Cl)cc2Cl)[nH]1 [CHIR99201, 6-[[2-[[4-(2,4-dichlorophenyl)-5-(5-methyl-1H-imidazol-2-yl)-2pyrimidinyl]amino]ethyl]amino]-3-pyridinecarbonitrile]
ALB expression (hPSC-derived LB cells; [1]): inhibits
GLT and GS expression (adult human hepatocytes; [2]): decrease
expression of periportal genes like ARG1, SERDH, CPS1 (adult human hepatocytes; [2]): increased
expansion and self-renewal of LB progenitors (PFG cells): enhance
LB gene expression (PFG cells): higher
expansion (PFG cells): promotes

Wnt3A
perivenous xenobiotic gene expression (e.g. CYP3A4, CYP3A5 and CYP3A7) (adult human hepatocytes): increased
LB gene expression (PFG cells): higher
expansion (PFG cells): promotes

Cc1ccc2nc(NC(=O)CSc3nc4c(c(=O)n3-c3ccccc3)SCC4)sc2c1 [IWP2, N-(6-Methyl-2-benzothiazolyl)-2-[(3,4,6,7-tetrahydro-4-oxo-3-phenylthieno[3,2-d]pyrimidin-2-yl)thio]-acetamide]
downstream LB gene expression (AFP, CEBPA, TBX3, HNF1B) (hPSC-derived DE; [3]): severely reduces
expression of MHG markers CDX2 and EVX1 (hPSC-derived DE; [3]): reduces
HNF6, PROX1 and HEX expression (hPSC-derived DE; Wnt inhibition during foregut specification): upregulated

CC(C)(C(=O)NCC(F)(F)C(F)(F)F)C(=O)N[C@@H]1C(=O)Nc2ccccc2-c2ccccc21 [R04929097, Propanediamide, N1-[(7S)-6,7-dihydro-6-oxo-5H-dibenz[b,d]azepin-7-yl]-2,2-dimethyl-N3-(2,2,3,3,3-pentafluoropropyl)-]
SOX9 expression (hPSC-derived LB cells; Notch inhibition): reducing
ALB expression (hPSC-derived LB cells; added to hPSC-derived LB cells): enhance
expression of the majority of cytochrome enzymes (CYP1A1, CYP1A2, CYP2C19, CYP2C9, CYP2D6, CYP2E1, CYP3A4, CYP3A5, CYP3A7, CYP7A1) (adult human hepatocytes): upregulated

FGF2: activator of FGF signaling
subsequent liver bud gene expression of CEBPA, HNF1A, HNF6, PROX1 (hPSC-derived DE; provided to DE cells during foregut specification): increase
ALB expression (hPSC-derived LB cells; 20 ng/ml): reduction
SOX9 expression (hPSC-derived LB cells; 20 ng/ml): slightly increase
ALB expression (hPSC-derived LB cells; [1]): inhibits
expansion and self-renewal of LB progenitors (PFG cells): enhance
LB gene expression of HNF1A, HNF6, PROX1, TBX3, HNF4A, AFP, CEBPA, HNF1B (PFG cells; addition in CDM KOSR base media): did not benefit

c1ccc2c(-c3cnn4cc(-c5ccc(N6CCNCC6)cc5)cnc34)ccnc2c1 [BM3189]
ALB expression (hPSC-derived LB cells; added to hPSC-derived LB cells): decreased

CC(=O)Nc1cccc(-n2c(=O)n(C3CC3)c(=O)c3c(Nc4ccc(I)cc4F)n(C)c(=O)c(C)c32)c1 [GSK1120212]
subsequent expression of liver genes (hPSC-derived LB cells): higher

O=C1O[C@H]([C@@H](O)CO)C(O)=C1OP(=O)(O)O [AA2P, L-ascorbic acid 2-phosphate]
expression of PAH, HGD, HPD, TAT, MAI, FAH, CYP3A4, ALB and CPS1 (hPSC-derived LB cells): enhancement
liver maturation (hPSC-derived LB cells; days 7 to 12 and days 13 to 16): significantly promoted

C[C@H](NC(=O)Cc1cc(F)cc(F)c1)C(=O)NC(C(=O)OC(C)(C)C)c1ccccc1 (some centres unmarked) [DAPT]
SOX9 expression (hPSC-derived LB cells; Notch inhibition): reducing
ALB expression (hPSC-derived LB cells; added to hPSC-derived LB cells): enhance
expression of the majority of cytochrome enzymes (CYP1A1, CYP1A2, CYP2C19, CYP2C9, CYP2D6, CYP2E1, CYP3A4, CYP3A5, CYP3A7, CYP7A1) (adult human hepatocytes): upregulated

Cc1cccc(-c2nn(C(=S)Nc3ccccc3)cc2-c2ccnc3ccccc23)n1 [A83-01, 3-(6-Methyl-2-pyridinyl)-N-phenyl-4-(4-quinolinyl)-1H-pyrazole-1-carbothioamide]
expression of CYP1A1, CYP1A2, CYP2C19, CYP2C9, CYP3A4, CYP3A5, CYP3A7 and CYP7A1 (adult human hepatocytes; TGFβ inhibition): increased
subsequent expression of ALB (PFG cells): reduces

Nc1ncnc2c1ncn2[C@@H]1O[C@@H]2COP(O)(=S)O[C@H]2[C@H]1O (some centres unmarked) [spCAMP]
periportal gene expression (adult human hepatocytes): promote
perivenous gene expression (e.g. members of the CYP1, CYP2 and CYP3 families) (adult human hepatocytes): reducing

Nc1ncnc2c1nc(Br)n2[C@@H]1O[C@@H]2COP(=O)(O)O[C@H]2[C@H]1O [8-bromoCAMP]
expression of functional liver enzymes such as FAH, PAH, HGD, HPD, TAT, CPS1, CYP3A4 (hPSC-derived LB cells; days 9-12): enhances
hepatic progenitor marker ALB expression (hPSC-derived LB cells; days 9-12): promotes
periportal gene expression (adult human hepatocytes): promote
perivenous gene expression (e.g. members of the CYP1, CYP2 and CYP3 families) (adult human hepatocytes): reducing
expression of cytochrome genes (adult human hepatocytes; [2]): increased
expression of LB markers including AFP, CEBPA, HNF6, HNF1B, PROX1, TBX3 and HNF4A (PFG cells; during LB specification): significantly increase

HGF: Hepatocyte growth factor
ALB expression (hPSC-derived LB cells; added to hPSC-derived LB cells): promotes

C=C[C@@]1(C)CC(=O)[C@]2(O)[C@@]3(C)[C@@H](O)CCC(C)(C)[C@@H]3[C@H](O)[C@H](OC(C)=O)[C@@]2(C)O1 [Forskolin]
expression of functional liver enzymes such as FAH, PAH, HGD, HPD, TAT, CPS1, CYP3A4 (hPSC-derived LB cells): enhances

O=C(NOC[C@H](O)CO)c1ccc(F)c(F)c1Nc1ccc(I)cc1F [PD0325901, N-[(2R)-2,3-Dihydroxypropoxy]-3,4-difluoro-2-[(2-fluoro-4-iodophenyl)amino]-benzamide]
LB gene expression (HNF1A, HNF6, PROX1, TBX3, HNF4A) (PFG cells; inhibition of FGF/MAPK signaling): reduced

Cc1cccc(-c2[nH]c(C(C)(C)C)nc2-c2ccc3c(c2)OCO3)n1 [SB505124, 2-[4-(1,3-Benzodioxol-5-yl)-2-(1,1-dimethylethyl)-1H-imidazol-5-yl]-6-methyl-pyridine]
competence of hepatic progenitors to generate hepatocyte-like cells (hPSC-derived LB cells): reduces
expression of liver genes such as ALB, CYP3A4, CPS1, FAH, TAT, PAH, HGD, HPD and MAI (hPSC-derived LB cells): lower
later functional liver gene expression of TAT, FAH, PAH, HGD, HPD, and MAI (hPSC-derived LB cells; brief treatment on days 7-8): higher
effect on the cytochrome expression compared with A83-01 (adult human hepatocytes): stronger
expression of CYP1A1, CYP1A2, CYP2C19, CYP2C9, CYP3A4, CYP3A5, CYP3A7 and CYP7A1 (adult human hepatocytes): increased
subsequent expression of ALB (PFG cells): reduces

C[N+](C)(C)CCO.[Cl-] [choline chloride]
expression of ALB, FAH, PAH, TAT, CYP3A4, CYP3A7, AAT, THR, FBA, FBB, FBG and TBX3 (hPSC-derived LB cells; higher levels of phospholipid precursor): increases

CCN(CC)CCCCNc1ncc2cc(-c3cc(OC)cc(OC)c3)c(NC(=O)NC(C)(C)C)nc2n1 [PD173074, N-[2-[[4-(Diethylamino)butyl]amino]-6-(3,5-dimethoxyphenyl)pyrido[2,3-d]pyrimidin-7-yl]-N′-(1,1-dimethylethyl)urea]
subsequent expression of liver genes (hPSC-derived LB cells): higher

Nc1ncnc2c1ncn2[C@@H]1O[C@@H]2CO[P@@](O)(=S)O[C@H]2[C@H]1O [RpCAMP]
p450 cytochrome expression (adult human hepatocytes): promoted

B1: BMP4: activator of BMP signaling (protein, UniProt P12644 293-408, looked up)
Bone morphogenetic protein 4: SPKHHSQRARKKNKNCRRHSLYVDFSDVGWNDWIVAPPGYQAFYCHGDCPFPLADHLNSTNHAIVQTLVNSVNSSIPKACCVPTELSAISMLYLDEYDKVVLKNYQEMVVEGCGCR
competence to generate LB cells (hPSC-derived DE; treatment during foregut specification): mildly enhanced
ALB expression (hPSC-derived LB cells; added to hPSC-derived LB cells): promote; also recorded: increased
LB specification (PFG cells): promotes
dose that maximally induces expression of LB genes (HNF4A, PROX1, AFP, TBX3, HNF1B, HNF1A, HNF6, CEBPA) (PFG cells): 30 to 40 ng/mL
pancreatic specification (PFG cells): inhibited

B2: OSM: Oncostatin M (protein, UniProt P13725 26-221, looked up)
Oncostatin-M: AAIGSCSKEYRVLLGQLQKQTDLMQDTSRLLDPYIRIQGLDVPKLREHCRERPGAFPSEETLRGLGRRGFLQTLNATLGCVLHRLADLEQRLPKAQDLERSGLNIEDLEKLQMARPNILGLRNNIYCMAQLLDNSDTAEPTKAGRGASQPPTPTPASDAFQRKLEGCRFLHGYHRFMHSVGRVFSKWGESPNRSRR
ALB expression (hPSC-derived LB cells; added to hPSC-derived LB cells): promoted
